Columns and labels:
[1] = tested on: IL-1β; experiment: THP-1 AlphaLISA IL-1β cytokine assay; format: cell-based; conditions: Homo sapiens, differentiated THP-1 cells
Procedure: (§1) Biological Example 1—THP-1 AlphaLISA IL-1β and IL-6 Cytokine Assay Measuring Inhibitory Effects on IL-1, and IL-6 Cytokine Output from THP-1s The cytokine inhibition profiles of compounds of formula (I) were determined in a differentiated THP-1 cell assay. All assays were performed in RPMI-1640 growth medium (Gibco), supplemented with 10% fetal bovine serum (FBS; Gibco), 1% penicillin-streptomycin and 1% sodium pyruvate unless specified otherwise. The IL-1β and IL-6 cytokine inhibition assays were each run in a background of differentiated THP-1 cells as described below. All reagents described were from Sigma-Aldrich unless specified otherwise. Compounds were prepared as 10 mM DMSO stocks. THP-1 cells were expanded as a suspension up to 80% confluence in appropriate growth medium. Cells were harvested, suspended, and treated with an appropriate concentration of phorbol 12-myristate 13-acetate (PMA) over a 72 hr period (37° C./5% CO2). Following 72 hrs of THP-1 cell incubation, cellular medium was removed and replaced with fresh growth media containing 1% of FBS. Working concentrations of compounds were prepared separately in 10% FBS treated growth medium and pre-incubated with the cells for 30 minutes (37° C./5% CO2). Following the 30 minute compound pre-incubation, THP-1s were treated with an appropriate concentration of LPS and the THP-1s were subsequently incubated for a 24 hr period (37° C./5% CO2). An appropriate final concentration of Nigericin was then dispensed into the THP-1 plates and incubated for 1 hour (37° C./5% CO2) before THP-1 supernatants were harvested and collected in separate polypropylene 96-well holding plates. Reagents from each of the IL-1β and IL-6 commercial kits (Perkin Elmer) were prepared and run according to the manufacturer's instructions. Subsequently, fluorescence signal detection in a microplate reader was measured (EnVision® Multilabel Reader, Perkin Elmer). Percentage inhibition was calculated per cytokine by normalizing the sample data to the high and low controls used within each plate (+/−LPS respectively). Percentage inhibition was then plotted against compound concentration and the 50% inhibitory concentration (IC50) was determined from the resultant concentration-response curve.

[2] = tested on: IL-6; experiment: THP-1 AlphaLISA IL-6 cytokine assay; format: cell-based; conditions: Homo sapiens, THP-1, differentiated THP-1 cells
Procedure: as §1

[3] = Hepatocyte stability assay, human; format: in vitro ADME; conditions: cryopreserved hepatocytes, 10 μM compound
Source text: (§2) Biological Example 3—Hepatocyte Stability Assay
(§3) Defrosted cryo-preserved hepatocytes (viability >70%) are used to determine the metabolic stability of a compound via calculation of intrinsic clearance (CIint; a measure of the removal of a compound from the liver in the absence of blood flow and cell binding). Clearance data are particularly important for […] as they can be used in combination with in vivo data to predict the half-life and oral bioavailability of a drug.
(§4) The metabolic stability in hepatocytes assay involves a time-dependent reaction using both positive and negative controls. The cells must be pre-incubated at 37° C. then spiked with test compound (and positive control); samples taken at pre-determined time intervals are analysed to monitor the change in concentration of the initial drug compound over 60 minutes. A buffer incubation reaction (with no hepatocytes present) acts as a negative control and two cocktail solutions, containing compounds with known high and low clearance values (verapamil/7-hydroxycoumarin and propranolol/diltiazem), act as positive controls. • 1. The assay is run with a cell concentration of 0.5×10^6 cells/mL in Leibovitz buffer. • 2. All compounds and controls are run in duplicate. • 3. Compound concentration is 10 μM. • 4. All compounds and controls are incubated with both cells and buffer to show turnover is due to hepatic metabolism. • 5. All wells on the incubation plate will have 326.7 μL of either cells or buffer added. • 6. Prior to assay, cell and buffer-only incubation plates are preincubated for 10 mins at 37° C. • 7. The assay is initiated by adding compounds, 3.3 μL of 1 mM in 10% DMSO-90% Buffer; final DMSO concentration is 0.1%. • 8. Samples are taken at regular timepoints (0, 5, 10, 20, 40, 60 min) until 60 mins. • 9. Sample volume is 40 μL and it is added to 160 μL of crash solvent (acetonitrile with internal standard) and stored on ice. • 10. At the end of the assay, the crash plates are centrifuged at 3500 rpm for 20 mins at 4° C. • 11. 80 μL of clear supernatant is removed and mixed with 80 μL of deionised water before being analysed by LC-MS/MS.
(§5) Raw LC-MS/MS data are exported to, and analysed in, Microsoft Excel for determination of intrinsic clearance. The percentage remaining of a compound is monitored using the peak area of the initial concentration as 100%. Intrinsic clearance and half-life values are calculated using a graph of the natural log of percentage remaining versus the time of reaction in minutes. Half-life (min) and intrinsic clearance (CIint in μL min^−1 10^−6 cells) values are calculated using the gradient of the graph (the elimination rate constant, k) and Equations 1 and 2.

[4] = tested on: hepatocytes; experiment: Hepatocyte stability assay, human; format: in vitro ADME; conditions: 10 μM compound
Source text: as §2, §3, §4, §5

[5] = Hepatocyte stability assay, mouse; format: in vitro ADME; conditions: mouse, cryopreserved hepatocytes, 10 μM compound
Source text: as §2, §3, §4, §5

[6] = tested on: hepatocytes; experiment: Hepatocyte stability assay, mouse; format: in vitro ADME; conditions: 10 μM compound
Source text: as §2, §3, §4, §5

[7] = tested on: NRF2; experiment: NRF2 activation assay (DiscoverX PathHunter NRF2 translocation kit, U2OS cells); format: cell-based; conditions: Table 4, compounds of formula (II)
Procedure: Biological Example 2—NRF2 Activation Assay Measuring Compound Activation Effects on the Anti-Inflammatory Transcription Factor NRF2 in DiscoverX PathHunter NRF2 Translocation Kit Potency and efficacy of compounds of formula (I) against the target of interest to activate NRF2 (nuclear factor erythroid 2-related factor 2) were determined using the PathHunter NRF2 translocation kit (DiscoverX). The NRF2 translocation assay was run using an engineered recombinant cell line, utilising enzyme fragment complementation to determine activation of the Keap1-NRF2 protein complex and subsequent translocation of NRF2 into the nucleus. Enzyme activity was quantified using a chemiluminescent substrate consumed following the formation of a functional enzyme upon PK-tagged NRF2 translocation into the nucleus. Additionally, a defined concentration of dimethyl fumarate was used as the ‘High’ control to normalise test compound activation responses to. U2OS PathHunter eXpress cells were thawed from frozen prior to plating. Following plating, U2OS cells were incubated for 24 hrs (37° C./5% CO2) in commercial kit provided cell medium. Following 24 hrs of U2OS incubation, cells were directly treated with an appropriate final concentration of compound. Following compound treatment, the U2OS plates were incubated for a further 6 hours (37° C./5% CO2) before detection reagent from the PathHunter NRF2 commercial kit was prepared and added to test plates according to the manufacturer's instructions. Subsequently, the luminescence signal detection in a microplate reader was measured (PHERAstar®, BMG Labtech). Percentage activation was calculated by normalising the sample data to the high and low controls used within each plate (+/−DMF). Percentage activation/response was then plotted against compound concentration and the 50% activation concentration (EC50) was determined from the plotted concentration-response curve.

[8] = Table 2, compounds of formula (II)

Row | IC50 [1, 8] [µM] | half-life at 10 μM ([3]; Table 6, read-out: T½) [min] | CIint ([4]; Table 6) | half-life at 10 μM ([5]; Table 6, read-out: T½) [min] | CIint ([6]; Table 6) | EC50 ([7]; +GSH) [µM] | EC50 ([7]; −GSH) [µM] | Structure (SMILES) | IC50 [2, 8] [µM] | IC50 ([1]; LPS then Nigericin, Table 1) [µM] | IC50 ([2]; LPS then Nigericin, Table 1) [µM] | half-life at 10 μM ([3]; Table 5, read-out: T½) [min] | CIint ([4]; Table 5) | half-life at 10 μM ([5]; Table 5, read-out: T½) [min] | CIint ([6]; Table 5) | NRF2 activation Emax ([7]; +GSH) | NRF2 activation Emax ([7]; −GSH)
1 | < 6 | 5 to 29 | ++ (++ means >30-110) | < 5 | + (+ means >110-277) | – | – | O=C(O)/C=C/C(=O)OC(c1ccc(C(F)(F)F)cc1)C(F)(F)F (single isomer, unassigned) [Intermediate 44, (E)-4-oxo-4-(2,2,2-trifluoro-1-(4-(trifluoromethyl)phenyl)ethoxy)but-2-enoic acid] | < 6 | – | – | – | – | – | – | – | –
2 | – | – | – | – | – | – | – | O=C(O)CCOC(=O)/C=C/C(=O)OC1(c2ccc(C(F)(F)F)cc2)CCC1 [Example 16, (E)-3-(4-oxo-4-(1-(4-(trifluoromethyl)phenyl)cyclobutoxy)but-2-enoyloxy)propanoic acid] | – | 2.5 to 6.1 | < 2.5 | 5 to 29 | +++ (+++ means 50-149) | < 5 | + (+ means >277) | – | –
3 | 6 to 30 | > 100 | ++++ (++++ means 5-15) | 5 to 29 | ++ (++ means >30-110) | < 23 | < 23 | O=C(O)/C=C/C(=O)OC1CCCCCCC1 [Intermediate 6, (E)-4-(cyclooctyloxy)-4-oxobut-2-enoic acid] | – | – | – | – | – | – | – | ++++ (++++ means >150%) | ++++ (++++ means >150%)
4 | 6 to 30 | 30 to 100 | +++ (+++ means >15-30) | 5 to 29 | ++ (++ means >30-110) | < 23 | < 23 | O=C(O)/C=C/C(=O)OC1CC2(CCC2)C1 [Intermediate 7, (E)-4-oxo-4-(spiro[3.3]heptan-2-yloxy)but-2-enoic acid] | – | – | – | – | – | – | – | +++ (+++ means >114-150%) | ++++ (++++ means >150%)
5 | 30 to 50 | 30 to 100 | +++ (+++ means >15-30) | 30 to 100 | ++ (++ means >30-110) | 23 to 48.4 | < 23 | O=C(O)/C=C/C(=O)OC1CCCCCC1 [Intermediate 8, (E)-4-(cycloheptyloxy)-4-oxobut-2-enoic acid] | – | – | – | – | – | – | – | +++ (+++ means >114-150%) | ++++ (++++ means >150%)
6 | 6 to 30 | 5 to 29 | ++ (++ means >30-110) | 5 to 29 | + (+ means >110-277) | – | – | O=C(O)/C=C/C(=O)OC1(c2ccc(C(F)(F)F)cc2)CSC1 [Intermediate 17, (E)-4-oxo-4-((3-(4-(trifluoromethyl)phenyl)thietan-3-yl)oxy)but-2-enoic acid] | 6 to 30 | – | – | – | – | – | – | – | –
7 | 6 to 30 | 30 to 100 | ++ (++ means >30-110) | 30 to 100 | ++ (++ means >30-110) | – | – | O=C(O)/C=C/C(=O)OC1(c2ccc(C(F)(F)F)cc2)COC1 [Intermediate 18, (E)-4-oxo-4-((3-(4-(trifluoromethyl)phenyl)oxetan-3-yl)oxy)but-2-enoic acid] | 6 to 30 | – | – | – | – | – | – | – | –

Row | Structure (SMILES) | IC50 [1, 8] [µM] | half-life at 10 μM ([3]; Table 6, read-out: T½) [min] | CIint ([4]; Table 6) | half-life at 10 μM ([5]; Table 6, read-out: T½) [min] | CIint ([6]; Table 6) | EC50 ([7]; +GSH) [µM] | EC50 ([7]; −GSH) [µM] | IC50 [2, 8] [µM] | IC50 ([1]; LPS then Nigericin, Table 1) [µM] | IC50 ([2]; LPS then Nigericin, Table 1) [µM] | half-life at 10 μM ([3]; Table 5, read-out: T½) [min] | CIint ([4]; Table 5) | half-life at 10 μM ([5]; Table 5, read-out: T½) [min] | CIint ([6]; Table 5) | NRF2 activation Emax ([7]; +GSH) | NRF2 activation Emax ([7]; −GSH)
8 | C[C@H]1C[C@](OC(=O)/C=C/C(=O)O)(c2ccc(C(F)(F)F)cc2)C1 (single isomer, unassigned) [Intermediate 33, (E)-4-((cis)-3-methyl-1-(4-(trifluoromethyl)phenyl)cyclobutoxy)-4-oxobut-2-enoic acid] | < 6 | > 100 | ++++ (++++ means 5-15) | 30 to 100 | +++ (+++ means >15-30) | – | – | < 6 | – | – | – | – | – | – | – | –
9 | O=C(O)/C=C/C(=O)OC1(c2cc(F)c(C(F)(F)F)c(F)c2)CCC1 [Intermediate 29, (E)-4-(1-(3,5-difluoro-4-(trifluoromethyl)phenyl)cyclobutoxy)-4-oxobut-2-enoic acid] | < 6 | > 100 | ++++ (++++ means 5-15) | 30 to 100 | +++ (+++ means >15-30) | – | – | < 6 | – | – | – | – | – | – | – | –
10 | O=C(O)/C=C/C(=O)OC1(c2ccc(C(F)(F)F)cc2)CC(F)(F)C1 [Intermediate 32, (E)-4-(3,3-difluoro-1-(4-(trifluoromethyl)phenyl)cyclobutoxy)-4-oxobut-2-enoic acid] | < 6 | 30 to 100 | +++ (+++ means >15-30) | 30 to 100 | +++ (+++ means >15-30) | – | – | < 6 | – | – | – | – | – | – | – | –
11 | O=C(O)/C=C/C(=O)OC1(c2ccc(C(F)(F)F)s2)CCC1 [Intermediate 36, (E)-4-oxo-4-(1-(5-(trifluoromethyl)thiophen-2-yl)cyclobutoxy)but-2-enoic acid] | < 6 | > 100 | ++++ (++++ means 5-15) | 30 to 100 | ++ (++ means >30-110) | < 23 | < 23 | – | – | – | – | – | – | – | ++ (++ means >87-114%) | +++ (+++ means >114-150%)
